These results are taken from the supplement of paper PMC11061612.

Assay [1] relates to ESO51 (Esophageal Adenocarcinoma). The experiment in a line: Bliss excess, mean over the matrix (fraction); higher = more synergy. In outline: (§1)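 Cell lines in DMEM/F12 or RPMI with 10% FBS were plated in 1536-well plates, held 24 hours at 37°C, 5% CO2, then given two-drug dose matrices for 72 hours (DMSO typically 0.2%). Viability was read by CellTiter-Glo 2.0 luminescence and scaled as inhibition from 0 (vehicle wells) to 1 (blank wells). Combination Emax is the second-highest inhibition in the matrix; Bliss excess is observed combination effect minus expected EA + EB − EA·EB, EA and EB being single-agent effects.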

Assay [2] concerns G-361 (Melanoma). The assay is described as above. In outline:
as §1

As for `CC1(C)CCC(CN2CCN(c3ccc(C(=O)NS(=O)(=O)c4ccc(NCC5CCOCC5)c([N+](=O)[O-])c4)c(Oc4cnc5[nH]ccc5c4)c3)CC2)=C(c2ccc(Cl)cc2)C1` [Venetoclax] + C=CCn1c(=O)c2cnc(Nc3ccc(N4CCN(C)CC4)cc3)nc2n1-c1cccc(C(C)(C)O)n1 [AZD1775] (first compound max 1 µM, partner max 1 µM), the Bliss excess in assay [1] was -0.0404; in assay [2], -0.0214.
Turning to `CC1(C)CCC(CN2CCN(c3ccc(C(=O)NS(=O)(=O)c4ccc(NCC5CCOCC5)c([N+](=O)[O-])c4)c(Oc4cnc5[nH]ccc5c4)c3)CC2)=C(c2ccc(Cl)cc2)C1` [Venetoclax] + C[C@@H](Nc1cc(F)cc(F)c1)c1cc(C(=O)N(C)C)cc2c(=O)cc(N3CCOCC3)oc12 [AZD8186] (first compound max 1 µM, 7x7, partner max 3 µM), the Bliss excess in assay [1] was found to be 0.0204; in assay [2], 0.0075.
In the case of `Cc1c2c(nn1C)CSCc1cc(n(C)n1)CSc1cc(c3ccccc3c1)OCCCc1c(C(=O)O)n(C)c3c-2c(Cl)ccc13` [AZD5991] + Cn1cnc2c(F)c(Nc3ccc(Br)cc3Cl)c(C(=O)NOCCO)cc21 [Selumetinib] (first compound max 1 µM, 7x7, partner max 3 µM), the Bliss excess is 0.0896 in assay [1] and 0.0083 in assay [2].
Regarding `CN(CCO)CC[C@H](CSc1ccccc1)Nc1ccc(S(=O)(=O)NC(=O)c2ccc(N3CCC([C@@H](O)c4ccccc4-c4ccc(Cl)cc4)CC3)cc2)cc1S(=O)(=O)C(F)(F)F` [AZD4320] + Cc1cc2ncnn2cc1Nc1ncc2c(n1)n(C1CCOCC1)c(=O)n2C [AZD7648] (first compound max 1 µM, 7x7, partner max 10 µM), the Bliss excess is -0.0168 in assay [1] and -0.0444 in assay [2].
Consider `COc1cccc(OCCCN)c1-c1cc(Nc2cnc(C#N)cn2)n[nH]1` [Prexasertib] + CCc1c2c(nc3ccc(O)cc13)-c1cc3c(c(=O)n1C2)COC(=O)[C@]3(O)CC [SN-38] (first compound max 1 µM, 7x7, partner max 0.3 µM), for which the figures for the Bliss excess in assay [1] and in assay [2] were -0.0376 and -0.0219, respectively.
`CC1(C)CCC(CN2CCN(c3ccc(C(=O)NS(=O)(=O)c4ccc(NCC5CCOCC5)c([N+](=O)[O-])c4)c(Oc4cnc5[nH]ccc5c4)c3)CC2)=C(c2ccc(Cl)cc2)C1` [Venetoclax] + CCN(CCO)CCCOc1ccc2c(Nc3cc(CC(=O)Nc4cccc(F)c4)[nH]n3)ncnc2c1 [AZD2811] (first compound max 1 µM, 7x7, partner max 1 µM): the Bliss excess in assay [1] was -0.0104; in assay [2], -0.0163.
Regarding `Cc1c2c(nn1C)CSCc1cc(n(C)n1)CSc1cc(c3ccccc3c1)OCCCc1c(C(=O)O)n(C)c3c-2c(Cl)ccc13` [AZD5991] + C[C@@H](Nc1cc(F)cc(F)c1)c1cc(C(=O)N(C)C)cc2c(=O)cc(N3CCOCC3)oc12 [AZD8186] (first compound max 1 µM, 7x7, partner max 3 µM), the Bliss excess is -0.0134 in assay [1] and -0.0082 in assay [2].
As to `Cc1cc2ncnn2cc1Nc1ncc2c(n1)n(C1CCOCC1)c(=O)n2C` [AZD7648] + O=C(c1cc(Cc2n[nH]c(=O)c3ccccc23)ccc1F)N1CCN(C(=O)C2CC2)CC1 [Olaparib] (first compound max 10 µM, 7x7, partner max 10 µM), the figures for the Bliss excess in assay [1] and in assay [2] were -0.0056 and -0.043, respectively.
Regarding `CC1(C)CCC(CN2CCN(c3ccc(C(=O)NS(=O)(=O)c4ccc(NCC5CCOCC5)c([N+](=O)[O-])c4)c(Oc4cnc5[nH]ccc5c4)c3)CC2)=C(c2ccc(Cl)cc2)C1` [Venetoclax] + CN(C)CCCOc1ccc(-c2ccc3ncc4c(c3c2)n(C2CCOCC2)c(=O)n4C)cn1 [AZD0156] (first compound max 1 µM, 7x7, partner max 1 µM), the Bliss excess in assay [1] is -0.014; in assay [2], -0.0123.
Turning to `Cc1cc2ncnn2cc1Nc1ncc2c(n1)n(C1CCOCC1)c(=O)n2C` [AZD7648] + C=CCn1c(=O)c2cnc(Nc3ccc(N4CCN(C)CC4)cc3)nc2n1-c1cccc(C(C)(C)O)n1 [AZD1775] (first compound max 10 µM, partner max 1 µM), the Bliss excess is -0.0433 in assay [1] and 0.0081 in assay [2].
For the compound `C=CCn1c(=O)c2cnc(Nc3ccc(N4CCN(C)CC4)cc3)nc2n1-c1cccc(C(C)(C)O)n1` [AZD1775] + O=C(c1cc(Cc2n[nH]c(=O)c3ccccc23)ccc1F)N1CCN(C(=O)C2CC2)CC1 [Olaparib] (first compound max 1 µM, partner max 10 µM), the figures for the Bliss excess in assay [1] and in assay [2] were -0.0917 and -0.0217, respectively.
Regarding `CCN(CCO)CCCOc1ccc2c(Nc3cc(CC(=O)Nc4cccc(F)c4)[nH]n3)ncnc2c1` [AZD2811] + C[C@@H]1COCCN1C2=NC(=NC(=C2)C3(CC3)[S@](=N)(=O)C)C4=C5C=CNC5=NC=C4 [AZD6738] (first compound max 1 µM, 7x7, partner max 10 µM), the Bliss excess in assay [1] is -0.0567; in assay [2], -0.0875.
`CCN(CCO)CCCOc1ccc2c(Nc3cc(CC(=O)Nc4cccc(F)c4)[nH]n3)ncnc2c1` [AZD2811] + O=C(c1cc(Cc2n[nH]c(=O)c3ccccc23)ccc1F)N1CCN(C(=O)C2CC2)CC1 [Olaparib] (first compound max 1 µM, 7x7, partner max 10 µM): the Bliss excess in assay [1] was -0.0379; in assay [2], -0.0295.
For the compound `CCc1c2c(nc3ccc(O)cc13)-c1cc3c(c(=O)n1C2)COC(=O)[C@]3(O)CC` [SN-38] + CN(C)CCCOc1ccc(-c2ccc3ncc4c(c3c2)n(C2CCOCC2)c(=O)n4C)cn1 [AZD0156] (first compound max 0.3 µM, 7x7, partner max 1 µM), the Bliss excess is -0.031 in assay [1] and 0.0105 in assay [2].
On to `COc1cccc(OCCCN)c1-c1cc(Nc2cnc(C#N)cn2)n[nH]1` [Prexasertib] + O=C(c1cc(Cc2n[nH]c(=O)c3ccccc23)ccc1F)N1CCN(C(=O)C2CC2)CC1 [Olaparib] (first compound max 1 µM, 7x7, partner max 10 µM), for which the results for the Bliss excess in assay [1] and in assay [2] were -0.248 and -0.0411, respectively.
Consider `Cc1c2c(nn1C)CSCc1cc(n(C)n1)CSc1cc(c3ccccc3c1)OCCCc1c(C(=O)O)n(C)c3c-2c(Cl)ccc13` [AZD5991] + CN(C)CCCOc1ccc(-c2ccc3ncc4c(c3c2)n(C2CCOCC2)c(=O)n4C)cn1 [AZD0156] (first compound max 1 µM, 7x7, partner max 1 µM), for which the Bliss excess in assay [1] is 0.0193; in assay [2], 0.0371.
In the case of `CN(C)CCCOc1ccc(-c2ccc3ncc4c(c3c2)n(C2CCOCC2)c(=O)n4C)cn1` [AZD0156] + C=CCn1c(=O)c2cnc(Nc3ccc(N4CCN(C)CC4)cc3)nc2n1-c1cccc(C(C)(C)O)n1 [AZD1775] (first compound max 1 µM, partner max 1 µM), the Bliss excess in assay [1] is 0.0363; in assay [2], -0.0556.
Regarding `Cc1c2c(nn1C)CSCc1cc(n(C)n1)CSc1cc(c3ccccc3c1)OCCCc1c(C(=O)O)n(C)c3c-2c(Cl)ccc13` [AZD5991] + C=CCn1c(=O)c2cnc(Nc3ccc(N4CCN(C)CC4)cc3)nc2n1-c1cccc(C(C)(C)O)n1 [AZD1775] (first compound max 1 µM, partner max 1 µM), the results for the Bliss excess in assay [1] and in assay [2] were 0.011 and 0.0513, respectively.
For the compound `CN(CCO)CC[C@H](CSc1ccccc1)Nc1ccc(S(=O)(=O)NC(=O)c2ccc(N3CCC([C@@H](O)c4ccccc4-c4ccc(Cl)cc4)CC3)cc2)cc1S(=O)(=O)C(F)(F)F` [AZD4320] + Cn1cnc2c(F)c(Nc3ccc(Br)cc3Cl)c(C(=O)NOCCO)cc21 [Selumetinib] (first compound max 1 µM, 7x7, partner max 3 µM), the Bliss excess in assay [1] worked out at 0.0355; in assay [2], 0.028.
For the compound `CC(=O)Nc1cccc(-n2c(=O)n(C3CC3)c(=O)c3c(Nc4ccc(I)cc4F)n(C)c(=O)c(C)c32)c1` [Trametinib] + Cc1nc(-c2cn3c(n2)-c2ccc(-c4cnn(C(C)(C)C(N)=O)c4)cc2OCC3)n(C(C)C)n1 [Taselisib] (first compound max 1 µM, 7x7, partner max 10 µM), the Bliss excess in assay [1] came out at 0.0533; in assay [2], 0.0078.
In the case of `C=CCn1c(=O)c2cnc(Nc3ccc(N4CCN(C)CC4)cc3)nc2n1-c1cccc(C(C)(C)O)n1` [AZD1775] + C[C@@H]1COCCN1C2=NC(=NC(=C2)C3(CC3)[S@](=N)(=O)C)C4=C5C=CNC5=NC=C4 [AZD6738] (first compound max 1 µM, partner max 10 µM), the Bliss excess in assay [1] was -0.0247; in assay [2], -0.0177.
Take `Cc1c2c(nn1C)CSCc1cc(n(C)n1)CSc1cc(c3ccccc3c1)OCCCc1c(C(=O)O)n(C)c3c-2c(Cl)ccc13` [AZD5991] + CCN(CCO)CCCOc1ccc2c(Nc3cc(CC(=O)Nc4cccc(F)c4)[nH]n3)ncnc2c1 [AZD2811] (first compound max 1 µM, 7x7, partner max 1 µM): the results for the Bliss excess in assay [1] and in assay [2] were 0.0031 and 0.0481, respectively.
In the case of `C[C@@H]1COCCN1c1cc(C2([S@](C)(=N)=O)CC2)nc(-c2ccnc3[nH]ccc23)n1` [AZD6738] + O=C(c1cc(Cc2n[nH]c(=O)c3ccccc23)ccc1F)N1CCN(C(=O)C2CC2)CC1 [Olaparib] (first compound max 10 µM, 7x7, partner max 10 µM), the Bliss excess in assay [1] was -0.102; in assay [2], -0.0052.
In the case of `CN(CCO)CC[C@H](CSc1ccccc1)Nc1ccc(S(=O)(=O)NC(=O)c2ccc(N3CCC([C@@H](O)c4ccccc4-c4ccc(Cl)cc4)CC3)cc2)cc1S(=O)(=O)C(F)(F)F` [AZD4320] + C[C@@H]1COCCN1C2=NC(=NC(=C2)C3(CC3)[S@](=N)(=O)C)C4=C5C=CNC5=NC=C4 [AZD6738] (first compound max 1 µM, 7x7, partner max 10 µM), the values for the Bliss excess in assay [1] and in assay [2] were -0.0203 and -0.0395, respectively.
Regarding `C[C@@H](c1ccc2nccn2c1)n1nnc2ncc(-c3cnn(C)c3)nc21` [Savolitinib] + CN(CC[C@H](CSC1=CC=CC=C1)NC2=C(C=C(C=C2)S(=O)(=O)NC(=O)C3=CC=C(C=C3)N4CCC(CC4)[C@H](C5=CC=CC=C5C6=CC=C(C=C6)Cl)O)S(=O)(=O)C(F)(F)F)CCO [AZD4320] (first compound max 1 µM, 7x7, partner max 1 µM), the Bliss excess in assay [1] was -0.0038; in assay [2], -0.0621.
